Source: US11931466B2, “Process for the preparation of drug loaded microparticles” (FERRING B.V., priority 2015, dated 2024)
Values after ≈ are worked out from the molar mass of the structure shown. Counter-ions that a name gives are not always drawn.

Tests used:
physchem = details: organic solvent or mixture
[1] = 20° C.; cited from earlier work

Row | solubility (physchem; 20 °C) [mg/mL] | Molecule | also measured
1 | 400 (≈ 892 mM) | O=C1CCc2ccc(OCCCCN3CCN(c4cccc(Cl)c4Cl)CC3)cc2N1 [Aripiprazole] | 
2 | 110 (≈ 293 mM) | O=C(CCCN1CCC(O)(c2ccc(Cl)cc2)CC1)c1ccc(F)cc1 [Haloperidol] | 
3 | 200 (≈ 469 mM) | COc1cc(C(C)=O)ccc1OCCCN1CCC(c2noc3cc(F)ccc23)CC1 [Iloperidone] | 
4 | 130 | CC12CC3CC(C)(C1)CC(N)(C3)C2 [Memantine hydrochloride] | 
5 |  | O=C1CC[C@@]2(O)[C@H]3Cc4ccc(O)c5c4[C@@]2(CCN3CC2CC2)[C@H]1O5 [Naltrexone hydrochloride] | solubility (physchem; benzyl alcohol, 20 °C): 800 mg/mL
6 |  | Cc1nc2n(c(=O)c1CCN1CCC(c3noc4cc(F)ccc34)CC1)CCCC2O (stereo not shown) [Paliperidone] | solubility (physchem; 60 °C): 233 mg/mL (≈ 546 mM)
7 |  | glycofurol | solubility in water [1]: soluble

Row | Molecule | solubility (physchem; 20 °C) [mg/mL] | also measured
8 | CNCC[C@H](Oc1cccc2ccccc12)c1cccs1 [Duloxetine hydrochloride] | 400 | 
9 | Cc1nc2n(c(=O)c1CCN1CCC(c3noc4cc(F)ccc34)CC1)CCCC2 [Risperidone] | 500 (≈ 1220 mM) | 
10 | CCN(C)C(=O)Oc1cccc([C@H](C)N(C)C)c1 [Rivastigmine tartrate] | 200 | 
